Experimental findings from patent US11638764B2, “Theranostic capture agents, compositions, and methods of using and making” (Indi Molecular, Inc., priority 2018, dated 2023) are described below.

For experiment [1], the target named is T1, His-PSMA (Sino Biological) (Homo sapiens, UniProt Q04609).
T1 construct: purchased Sino Biological
Nature of the experiment: ELISA, PSMA immobilized via His-tag, PCC titrated in solution. The format is binding. The conditions noted are these: biotin-PEG10-PEG10-peptide ligands. The procedure:
(§1) Epitope 5 hits were tested for binding to PSMA by ELISA (PSMA immobilized; PCC titrated in solution). Two immobilization strategies were employed: a His-tag and Myc-Flag tag (His-PSMA (Sino Biological) and PSMA-Myc-Flag (Origene)).

Experiment [2] concerns the target T2, PSMA-Myc-Flag (Origene) (Homo sapiens, UniProt Q04609).
T2 construct: purchased Origene
Nature of the experiment: ELISA, PSMA immobilized via Myc-Flag tag, PCC titrated in solution. The conditions noted are these: biotin-PEG10-PEG10-peptide ligands. The class given is binding. The procedure: as §1

Experiment [3] relates to LNCaP cells (PSMA+). Nature of the experiment: Flow cytometry binding to PSMA+ cells. The format is cell-based. From the text:
(§2) Hits resulting from the epitope 2 screen were also profiled by ELISA and flow.
(§3) Hits resulting from the epitope 3 screen were scaled up and subjected to ELISA and flow experiments.
(§4) Hits resulting from the epitope 4 screen were also profiled in ELISA and flow cytometry.
(§5) To increase the throughput of the screening step, three epitopes were mixed and screened against the pre-cleared library. PSMA epitopes 2C, 6, and 7 were mixed and picked by either an ImmPACT Vector Red or BCIP/NBT dye (FIG. 11). The ImmPACT Vector Red screen identified the hit peptide ehtye (SEQ ID NO:22). […] Further epitope selectivity can be deconvoluted via a single epitope orientation assay.
Background: In flow cytometry, cells or beads pass a laser one at a time.

For experiment [4], the system named is PC3 (PSMA−) cells. Nature of the experiment: Flow cytometry binding to PSMA- cells. The format is cell-based.
Text: as §2, §3, §5

Experiment [5] has as its target T3, full length PSMA protein (Homo sapiens, UniProt Q04609).
T3 construct: were incubated with 50 nM full length PSMA protein
Nature of the experiment: Bead screen with 50 nM full length PSMA protein. The class given is binding. The conditions noted are these: beads that did not bind LNCaP cells. From the text:
Some beads were lost during this screen. Most beads turned purple. […] These will be evaluated further by calculating their binding affinities by docking against the screened epitopes 2C, 6, and 7. Clustering analysis was used to identify some interesting sequences. Sequences found in the periphery (pkvrd (SEQ ID NO:27), frvkd (SEQ ID NO:28), dyksk (SEQ ID NO:32), Grkpf (SEQ ID NO:35), kwndd (SEQ ID NO:36), tkGne (SEQ ID NO:39), kvetd (SEQ ID NO:41), neGfd (SEQ ID NO:42), ekfld (SEQ ID NO:43), dkkaw (SEQ ID NO:44), veyGn (SEQ ID NO:45)) are generally preferred because they are more interesting chemically.

The target in experiment [6] is recombinant PSMA (Homo sapiens, UniProt Q04609). Nature of the experiment: ELISA against recombinant PSMA protein. The format is binding.
recombinant PSMA, sequence (Q04609 whole entry): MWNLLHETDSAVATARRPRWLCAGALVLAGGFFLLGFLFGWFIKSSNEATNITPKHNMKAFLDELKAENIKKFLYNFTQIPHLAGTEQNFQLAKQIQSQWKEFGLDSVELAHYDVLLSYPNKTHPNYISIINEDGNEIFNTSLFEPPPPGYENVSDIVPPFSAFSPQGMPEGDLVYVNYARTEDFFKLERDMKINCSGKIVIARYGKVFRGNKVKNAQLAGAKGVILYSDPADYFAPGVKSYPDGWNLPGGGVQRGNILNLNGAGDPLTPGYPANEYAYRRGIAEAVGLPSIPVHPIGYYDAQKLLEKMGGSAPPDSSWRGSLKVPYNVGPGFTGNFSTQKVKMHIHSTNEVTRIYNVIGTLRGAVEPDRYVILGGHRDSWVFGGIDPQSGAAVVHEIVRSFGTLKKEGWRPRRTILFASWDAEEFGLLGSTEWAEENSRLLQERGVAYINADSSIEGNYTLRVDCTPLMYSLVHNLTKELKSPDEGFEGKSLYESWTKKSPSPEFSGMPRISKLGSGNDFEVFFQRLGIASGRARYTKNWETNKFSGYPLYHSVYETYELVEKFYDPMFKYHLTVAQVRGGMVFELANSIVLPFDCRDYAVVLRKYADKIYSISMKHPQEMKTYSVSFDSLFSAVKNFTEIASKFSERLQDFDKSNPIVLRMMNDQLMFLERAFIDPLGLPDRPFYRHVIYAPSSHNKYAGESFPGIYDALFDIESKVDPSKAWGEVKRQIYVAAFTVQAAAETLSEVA
Text: as §2, §3, §4, §5
(An ELISA detects its analyte on a solid surface through an enzyme-linked reagent.)

Experiment [7] has as its system LNCaP cells (a PSMA+ cell line). Nature of the experiment: LNCaP cell adherence to hit beads. The conditions noted are these: on-bead peptide. The format is cell-based.
For experiment [8], the system named is CD8. Nature of the experiment: ELISA selectivity over an unrelated protein. The class given is binding.

Bridge positions count the residues as written; N and C are the ends. Square brackets hold non-standard residues; d marks the D form. Triazole bridges read from a SMILES are 1,4-linked. Ends that are not written are not given here. Peptide text beside a SMILES is read from it. Lys(N3) = [N-]=[N+]=NCCCC[C@H](N)C(=O)O; Pra = C#CC[C@H](N)C(=O)O

As a reminder, the EC50 is the concentration needed to bring the measured effect to its halfway point.

T1 sequence (Q04609 whole entry): as above
T3 sequence (Q04609 whole entry): as above
T2 sequence (Q04609 whole entry): as above

`CC(=O)N[C@H]1Cc2cn(nn2)CCCC[C@@H](C(N)=O)NC(=O)[C@@H](Cc2c[nH]c3ccccc23)NC(=O)[C@@H](Cc2c[nH]c3ccccc23)NC(=O)[C@@H](CCC(=O)O)NC(=O)[C@@H](CCCNC(=N)N)NC(=O)[C@@H](Cc2c[nH]cn2)NC1=O` [hreww] (Ac-[Pra][dH][dR][dE][dW][dW][Lys(N3)]-NH2; triazole 1-7; N-terminus and C-terminus assumed): the “binding to PSMA by ELISA” value in experiment [1] and in experiment [2] was “nanomolar binding affinity” throughout.
For the compound `CC(=O)N[C@H]1Cc2cn(nn2)CCCC[C@@H](C(N)=O)NC(=O)[C@@H](Cc2c[nH]cn2)NC(=O)[C@@H](Cc2c[nH]cn2)NC(=O)[C@@H](CCCCN)NC(=O)[C@@H](Cc2ccccc2)NC(=O)[C@@H](CC(C)C)NC1=O` [lfkhh] (Ac-[Pra][dL][dF][dK][dH][dH][Lys(N3)]-NH2; triazole 1-7; N-terminus and C-terminus assumed), in experiment [3], the “binding to LNCaP (PSMA+) cells by flow” value is listed as “bound equally”. The “binding to PC3 / PSMA− cells by flow” value in experiment [4] is on record as “bound equally”.
Take “dntwp: dark purple bead in full length PSMA screen ([dD][dN][dT][dW][dP])”: the “binding to LNCaP (PSMA+) cells by flow” value in experiment [3] is “no binding”. Further, the “bead colour after incubation with PSMA protein” value in experiment [5] was “darker than the others”. The “binding to recombinant PSMA by ELISA” value in experiment [6] is on record as “no binding”.
As to “dwpve: LNCaP-adherent bead hit1 (Table 8) ([dD][dW][dP][dV][dE])”, in experiment [3], the “binding to LNCaP (PSMA+) cells by flow” value was “no binding”. Also, the “adherence of LNCaP cells to the bead” value in experiment [7] is on record as “good adherence”. In experiment [6], the “binding to recombinant PSMA by ELISA” value is “no binding”.
Consider “ehtye: hit of ImmPACT Vector Red screen against mixed epitopes 2C, 6, 7 ([dE][dH][dT][dY][dE])”, for which, in experiment [4], the “binding to PC3 / PSMA− cells by flow” value is “increased binding to PSMA− cells”. Moreover, the “binding to recombinant PSMA by ELISA” value in experiment [6] is reported as “Binding to recombinant PSMA protein was achieved”. In addition, the “selectivity for PSMA over an unrelated protein (CD8)” value in experiment [8] was “good selectivity”.
For the compound “ert dimer: dimer of epitope 2 hit ert, PEG10-ert-Tz-ert ([dE]-[dR]-[dT]; also: dimer: PEG10-ert-Tz-ert)”, in experiment [3], the “binding to LNCaP (PSMA+) cells by flow” value is recorded as “showed binding”. The “binding to PC3 / PSMA− cells by flow” value in experiment [4] is given as “showed binding”. Further, the 50% effective concentration (EC50) in experiment [6] (read-out: EC50 of binding to recombinant PSMA by ELISA) turned out to be 769 nM.
For “ert: epitope 2A/2B hit1 (Table 3) ([dE]-[dR]-[dT])”, the “binding to LNCaP (PSMA+) cells by flow” value in experiment [3] is “did not show binding”. In experiment [4], the “binding to PC3 / PSMA− cells by flow” value was “did not show binding”.
For “kwtsd: LNCaP-adherent bead hit2 (Table 8) ([dK][dW][dT][dS][dD])”, the “binding to LNCaP (PSMA+) cells by flow” value in experiment [3] is on record as “no binding”. Also, the “adherence of LNCaP cells to the bead” value in experiment [7] is listed as “good adherence”. For the same compound, in experiment [6], the “binding to recombinant PSMA by ELISA” value is “no binding”.
Consider “svand: LNCaP-adherent bead hit3 (Table 8) ([dS][dV][dA][dN][dD])”, for which the “binding to LNCaP (PSMA+) cells by flow” value in experiment [3] is recorded as “modest”. The “binding to PC3 / PSMA− cells by flow” value in experiment [4] is “same binding to both PSMA+ and PSMA− cells”. Also, in experiment [7], the “adherence of LNCaP cells to the bead” value is listed as “good adherence”. In addition, in experiment [6], the “binding to recombinant PSMA by ELISA” value is reported as “Binding to recombinant PSMA protein was achieved”. Further, the “selectivity for PSMA over an unrelated protein (CD8)” value in experiment [8] is recorded as “good selectivity”.
